Laboratory results published in patent US8247211B2, “Glycopeptide antibiotics” (American Cyanamid Company, priority 2001, dated 2012).
≈ marks a conversion by molar mass, not a printed value.

What was measured:
[1] = system: Staphylococcus aureus-SMITH (GC 4543); test: Acute lethal infection in mice (ED50); assay type: in vivo; details: female CD-1 mice, intraperitoneal challenge, intravenous dose 30 min. after infection, 7 day survival ratios
Summary of the method: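 Bacteria suspended in Trypticase Soy Broth or hog gastric mucin are injected intraperitoneally into female CD-1 mice at a dose killing untreated animals within 24-48 hr. Thirty minutes later, test agent is administered intravenously. Survival at day 7 is scored.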

Staphylococcus sp. = test: In vitro antibacterial evaluation: minimum inhibitory concentration (MIC), broth dilution method; assay type: cell-based; details: for MIC Staphylococcus aureus (ATCC 29213): strain ATCC 29213; for MIC Staphylococcus aureus (GC 1131): strain GC 1131; for MIC Staphylococcus aureus (GC 3051): strain GC 3051; for MIC Staphylococcus aureus (GC 3053): strain GC 3053; for MIC Staphylococcus aureus (GC 4541): strain GC 4541; for MIC Staphylococcus aureus (GC 4542): strain GC 4542; for MIC Staphylococcus aureus (GC 4544): strain GC 4544; for MIC Staphylococcus aureus (GC 4545): strain GC 4545
Summary of the method: (§1)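 Using Muller-Hinton II […] and an inoculum of 5×10^5 CFU/mL, antibiotic dilutions from 64 down to 0.06 μg/mL were tested following NCCLS M7-A2. The MIC is the lowest concentration inhibiting growth, including in methicillin-, penicillin- or vancomycin-resistant clinical isolates.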

Streptococcus sp. = test: as above; assay type: cell-based; details: broth dilution, 5×10^5 CFU/mL, 18 hours at 35° C.
Summary of the method: as §1

Escherichia coli = test: as above; assay type: cell-based; details: 5×10^5 CFU/mL, 18 hours at 35° C.
Summary of the method: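 Broth dilution per NCCLS M7-A2 in Muller-Hinton II […], inoculum 5×10^5 CFU/mL, antibiotic tested over 64-0.06 μg/mL. MIC is taken as the lowest concentration that inhibits growth. Panel includes recent clinical isolates resistant to methicillin, penicillin and/or vancomycin.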

Enterococcus sp. = test: as above; assay type: cell-based; details: broth dilution, 5×10^5 CFU/mL, 18 hours at 35° C.
Summary of the method: as §1

[2] = broth dilution, 5×10^5 CFU/mL, 18 hours at 35° C.
[3] = broth dilution, 18 hours at 35° C.
[4] = strain GC 4543, broth dilution, 18 hours at 35° C.
[5] = strain GC 4546, broth dilution, 18 hours at 35° C.
[6] = strain GC 4547, broth dilution, 18 hours at 35° C.
[7] = strain GC 4548, broth dilution, 18 hours at 35° C.
[8] = strain GC 4549, broth dilution, 18 hours at 35° C.
[9] = strain GC 4551, broth dilution, 18 hours at 35° C.
[10] = strain GC 6257, broth dilution, 18 hours at 35° C.

## COc1cccc(C2OCC3OC(OC4C(CO)OC(Oc5ccc(CC6NC(=O)C(C(C)c7ccccc7)NC(=O)CNC(=O)C(CO)NC(=O)C(C(O)C7CNC(=N)N7C7OC(CO)C(O)C(O)C7O)NC(=O)C(C(O)C7CNC(=N)N7)NC6=O)cc5)C(O)C4O)C(O)C(O)C3O2)c1 (stereo not drawn) [Example 137, Cyclo[glycyl-β-methylphenylalanyl-O-[4-O-[4,6-O-(3-methoxybenzylidene)hexopyranosyl]-hexopyranosyl]-tyrosyl-3-(2-iminoimidazolidin-4-yl)seryl-3-(3-hexopyranosyl-2-iminoimidazolidin-4-yl)serylseryl]]
[1]
  median effective dose (ED50), Staphylococcus aureus-SMITH (GC 4543): 0.24 mg/kg
Staphylococcus sp.; [2]
  MIC Coagulase Negative Staphylococcus (GC 4547): 1 to 2 µg/mL
  MIC Coagulase Negative Staphylococcus (GC 4548): 0.5 to 2 µg/mL
  MIC Coagulase Negative Staphylococcus (GC 4549): 0.5 to 1 µg/mL
  MIC Coagulase Negative Staphylococcus (GC 4551): 1 to 2 µg/mL
  MIC Coagulase Negative Staphylococcus (GC 6257): 1 µg/mL (≈ 0.708 µM)
  MIC Staphylococcus aureus-SMITH (GC 4543): 1 to 2 µg/mL
  MIC Staphylococcus haemolyticus (GC 4546): 1 µg/mL (≈ 0.708 µM)
Staphylococcus sp.
  MIC Staphylococcus aureus (ATCC 29213): 1 to 2 µg/mL
  MIC Staphylococcus aureus (GC 1131): 2 µg/mL (≈ 1.42 µM)
  MIC Staphylococcus aureus (GC 3051): 1 to 2 µg/mL
  MIC Staphylococcus aureus (GC 3053): 2 to 4 µg/mL
  MIC Staphylococcus aureus (GC 4541): 1 to 2 µg/mL
  MIC Staphylococcus aureus (GC 4542): 1 to 2 µg/mL
  MIC Staphylococcus aureus (GC 4544): 2 µg/mL (≈ 1.42 µM)
  MIC Staphylococcus aureus (GC 4545): <2 to 4 µg/mL
Staphylococcus sp.; [3]
  MIC Staphylococcus aureus (ATCC 29213): 1 to 2 µg/mL
  MIC Staphylococcus aureus (GC 1131): 2 µg/mL (≈ 1.42 µM)
  MIC Staphylococcus aureus (GC 3051): 1 to 2 µg/mL
  MIC Staphylococcus aureus (GC 3053): 2 to 4 µg/mL
  MIC Staphylococcus aureus (GC 4541): 1 to 2 µg/mL
  MIC Staphylococcus aureus (GC 4542): 1 to 2 µg/mL
  MIC Staphylococcus aureus (GC 4544): 2 µg/mL (≈ 1.42 µM)
  MIC Staphylococcus aureus (GC 4545): 2 to 4 µg/mL
Staphylococcus sp.; [4]
  MIC Staphylococcus aureus-SMITH (GC 4543): 1 to 2 µg/mL
Staphylococcus sp.; [5]
  MIC Staphylococcus haemolyticus (GC 4546): 1 µg/mL (≈ 0.708 µM)
Staphylococcus sp.; [6]
  MIC Coagulase Negative Staphylococcus (GC 4547): 1 to 2 µg/mL
Staphylococcus sp.; [7]
  MIC Coagulase Negative Staphylococcus (GC 4548): 0.5 to 2 µg/mL
Staphylococcus sp.; [8]
  MIC Coagulase Negative Staphylococcus (GC 4549): 0.5 to 1 µg/mL
Staphylococcus sp.; [9]
  MIC Coagulase Negative Staphylococcus (GC 4551): 1 to 2 µg/mL
Staphylococcus sp.; [10]
  MIC Coagulase Negative Staphylococcus (GC 6257): 1 µg/mL (≈ 0.708 µM)
Streptococcus sp.
  MIC Streptococcus agalactiae (GC 4564): 0.5 µg/mL (≈ 0.354 µM)
  MIC Streptococcus pneumoniae (GC 1894): <0.06 µg/mL
  MIC Streptococcus pneumoniae (GC 4565): 0.25 µg/mL (≈ 0.177 µM)
  MIC Streptococcus pneumonine (ATCC 6301): 0.12 µg/mL (≈ 0.0849 µM)
  MIC Streptococcus pyogenes (GC 4563): 0.25 µg/mL (≈ 0.177 µM)
Escherichia coli
  MIC Escherichia coli (ATCC 25922): 64 µg/mL (≈ 45.3 µM)
  MIC Escherichia coli (GC 4560): 1 µg/mL (≈ 0.708 µM)
Enterococcus sp.
  MIC Enterococccus avium (GC 4558): 4 to 8 µg/mL
  MIC Enterococccus faecalis (ATCC 29212): 4 to 8 µg/mL
  MIC Enterococccus faecalis (GC 2691): 4 to 8 µg/mL
  MIC Enterococccus faecalis (GC 3059): 4 to 8 µg/mL
  MIC Enterococccus faecalis (GC 4552): 4 to 8 µg/mL
  MIC Enterococccus faecalis (GC 4553): 4 to 8 µg/mL
  MIC Enterococccus faecalis (GC 4554): 4 to 8 µg/mL
  MIC Enterococccus faecalis (GC 6189): 4 µg/mL (≈ 2.83 µM)
  MIC Enterococccus faecium (GC 2243): 4 to 8 µg/mL
  MIC Enterococccus faecium (GC 4556): 4 to 8 µg/mL
  MIC Enterococccus faecium (GC 4557): 2 to 4 µg/mL
  MIC Enterococcus faecalis (GC 2242): 4 to 8 µg/mL

## CC(c1ccccc1)C1NC(=O)CNC(=O)C(CO)NC(=O)C(C(O)C2CNC(=N)N2C2OC(CO)C(O)C(O)C2O)NC(=O)C(C(O)C2CNC(=N)N2)NC(=O)C(Cc2ccc(OC3OC(CO)C(OC4OC5COC(Cc6ccc(Cl)cc6)OC5C(O)C4O)C(O)C3O)cc2)NC1=O (stereo not drawn) [Example 120, Cyclo[glycyl-β-methylphenylalanyl-O-[4-O-[4,6-O-(4-chlorophenethylidene)hexopyranosyl]-hexopyranosyl]tyrosyl-3-(2-iminoimidazolidin-4-yl)seryl-3-(3-hexopyranosyl-2-iminoimidazolidin-4-yl)serylseryl]]
[1]
  median effective dose (ED50), Staphylococcus aureus-SMITH (GC 4543): 0.06 mg/kg
Staphylococcus sp.
  MIC Staphylococcus aureus (ATCC 29213): <0.5 µg/mL
  MIC Staphylococcus aureus (GC 1131): <0.5 µg/mL
  MIC Staphylococcus aureus (GC 3051): <0.5 µg/mL
  MIC Staphylococcus aureus (GC 3053): 1 µg/mL (≈ 0.698 µM)
  MIC Staphylococcus aureus (GC 4541): <0.5 µg/mL
  MIC Staphylococcus aureus (GC 4542): <0.5 µg/mL
  MIC Staphylococcus aureus (GC 4544): <0.5 µg/mL
  MIC Staphylococcus aureus (GC 4545): <0.5 µg/mL
Staphylococcus sp.; [3]
  MIC Staphylococcus aureus (ATCC 29213): <0.5 µg/mL
  MIC Staphylococcus aureus (GC 1131): <0.5 µg/mL
  MIC Staphylococcus aureus (GC 3051): <0.5 µg/mL
  MIC Staphylococcus aureus (GC 3053): 1 µg/mL (≈ 0.698 µM)
  MIC Staphylococcus aureus (GC 4541): <0.5 µg/mL
  MIC Staphylococcus aureus (GC 4542): <0.5 µg/mL
  MIC Staphylococcus aureus (GC 4544): <0.5 µg/mL
  MIC Staphylococcus aureus (GC 4545): <0.5 µg/mL
Staphylococcus sp.; strain GC 4543, 18 hours at 35° C.
  MIC Staphylococcus aureus-SMITH (GC 4543): <0.5 µg/mL
Staphylococcus sp.; [4]
  MIC Staphylococcus aureus-SMITH (GC 4543): <0.5 µg/mL
Staphylococcus sp.; strain GC 4546
  MIC Staphylococcus haemolyticus (GC 4546): <0.5 µg/mL
Staphylococcus sp.; [5]
  MIC Staphylococcus haemolyticus (GC 4546): <0.5 µg/mL
Staphylococcus sp.; strain GC 4547
  MIC Coagulase Negative Staphylococcus (GC 4547): 1 µg/mL (≈ 0.698 µM)
Staphylococcus sp.; [6]
  MIC Coagulase Negative Staphylococcus (GC 4547): 1 µg/mL (≈ 0.698 µM)
Staphylococcus sp.; strain GC 4548
  MIC Coagulase Negative Staphylococcus (GC 4548): <0.5 µg/mL
Staphylococcus sp.; [7]
  MIC Coagulase Negative Staphylococcus (GC 4548): <0.5 µg/mL
Staphylococcus sp.; strain GC 4549
  MIC Coagulase Negative Staphylococcus (GC 4549): <0.5 µg/mL
Staphylococcus sp.; [8]
  MIC Coagulase Negative Staphylococcus (GC 4549): <0.5 µg/mL
Staphylococcus sp.; strain GC 4551
  MIC Coagulase Negative Staphylococcus (GC 4551): <0.5 µg/mL
Staphylococcus sp.; [9]
  MIC Coagulase Negative Staphylococcus (GC 4551): <0.5 µg/mL
Staphylococcus sp.; strain GC 6257
  MIC Coagulase Negative Staphylococcus (GC 6257): <0.5 µg/mL
Staphylococcus sp.; [10]
  MIC Coagulase Negative Staphylococcus (GC 6257): <0.5 µg/mL
Streptococcus sp.
  MIC Streptococcus agalactiae (GC 4564): <0.5 µg/mL
  MIC Streptococcus pneumoniae (GC 1894): <0.5 µg/mL
  MIC Streptococcus pneumoniae (GC 4565): <0.5 µg/mL
  MIC Streptococcus pneumonine (ATCC 6301): <0.5 µg/mL
  MIC Streptococcus pyogenes (GC 4563): <0.5 µg/mL
Escherichia coli
  MIC Escherichia coli (ATCC 25922): 16 µg/mL (≈ 11.2 µM)
  MIC Escherichia coli (GC 4559): 16 µg/mL (≈ 11.2 µM)
  MIC Escherichia coli (GC 4560): <0.5 µg/mL
Enterococcus sp.
  MIC Enterococccus avium (GC 4558): 1 µg/mL (≈ 0.698 µM)
  MIC Enterococccus faecalis (ATCC 29212): 1 µg/mL (≈ 0.698 µM)
  MIC Enterococccus faecalis (GC 2691): 1 µg/mL (≈ 0.698 µM)
  MIC Enterococccus faecalis (GC 3059): 1 µg/mL (≈ 0.698 µM)
  MIC Enterococccus faecalis (GC 4552): 1 µg/mL (≈ 0.698 µM)
  MIC Enterococccus faecalis (GC 4553): 1 µg/mL (≈ 0.698 µM)
  MIC Enterococccus faecalis (GC 4554): 1 µg/mL (≈ 0.698 µM)
  MIC Enterococccus faecalis (GC 6189): 1 µg/mL (≈ 0.698 µM)
  MIC Enterococccus faecium (GC 2243): 1 µg/mL (≈ 0.698 µM)
  MIC Enterococccus faecium (GC 4556): 1 µg/mL (≈ 0.698 µM)
  MIC Enterococccus faecium (GC 4557): 1 µg/mL (≈ 0.698 µM)
  MIC Enterococcus faecalis (GC 2242): 1 µg/mL (≈ 0.698 µM)
